In patent US20130136766A1, “EFFECTIVE FRACTION FROM THE FRUITING BODIES OF GANODERMA LUCIDUM, EXTRACTION METHOD, USE AND PREPARATION THEREOF” (Shanghai University of Traditional Chinese Medicine, priority 2010, published 2013):

Test system: STZ-induced type 2 diabetic model rats
Test: Drug potency on STZ-induced type 2 diabetic model rats (fasting blood glucose)
Type: in vivo
Procedure: The extract from Example 13 was trialed for its drug potency on STZ-induced type 2 diabetic model rats in Center for Drug Safety Evaluation, Shanghai University of Traditional Chinese Medicine.
FYGL was orally administered for various groups as: type 2 diabetes control group with saline 20 mL/kg; type 2 diabetes group with low dose of FYGL 50 mg/kg; type 2 diabetes group with high dose of FYGL 150 mg/kg; metformin group with metformin 200 mg/kg; rosiglitazone group with rosiglitazone 3 mg/kg. Numbers of rats in each group are 10.
The symbol # indicates significant difference of the fasting blood glucose level with p<0.05 and ## indicates very significant difference with p<0.01, referred to that of type 2 diabetes control group.

Structure (SMILES)	fasting blood glucose (10 days, metformin 200 mg/kg)	fasting blood glucose (20 days, metformin 200 mg/kg)	fasting blood glucose (30 days, metformin 200 mg/kg)	fasting blood glucose (10 days, rosiglitazone 3 mg/kg)	fasting blood glucose (20 days, rosiglitazone 3 mg/kg)	fasting blood glucose (30 days, rosiglitazone 3 mg/kg)
CN(C)C(=N)N=C(N)N [Metformin, metformin]	14 ± 4(#) mM	18 ± 5(#) mM	13 ± 2 (##) mM			
CN(CCOc1ccc(CC2SC(=O)NC2=O)cc1)c1ccccn1 (stereo not drawn) [rosiglitazone]				14 ± 5(#) mM	14 ± 4(#) mM	12 ± 3 (##) mM
